Key:
Type in all cases: in vivo
[1] = test system: corn (Zea mays L.): ZEAMX; assay: Test Example 1 pre-emergence herbicidal activity, ZEAMX; details: Rate 63 g a.i./ha, visually observed 20th to 23rd day after application
Outline: (§1)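 Percent growth control, rated visually 20–23 d after a pre-emergence spray applied 1 d post-sowing; compound formulated as WP or EC in 500 L/ha water at a predetermined a.i. amount.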

[2] = test system: redroot pigweed (Amaranthus retroflexus L.): AMARE; assay: Test Example 1 pre-emergence herbicidal activity, AMARE; details: Rate 63 g a.i./ha, visually observed 20th to 23rd day after application
Outline: as §1

[3] = test system: corn (Zea mays L.), ZEAMX; assay: Test Example 2 post-emergence (foliage treatment) herbicidal activity, ZEAMX; details: 63 g a.i./ha
Outline: (§2)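 A small sprayer delivered the diluted WP or EC formulation (500 L/ha water, 0.1% v/v spreader) over emerged seedlings in upland soil pots. Damage relative to untreated plants was graded visually from 0 to 100% three weeks or so later (days 20-23).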

[4] = test system: barnyardgrass (Echinochloa crus-galli L.), ECHCG; assay: Test Example 2 post-emergence (foliage treatment) herbicidal activity, ECHCG; details: 63 g a.i./ha
Outline: (§3)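 Each species was evaluated for growth suppression by eye, 0% matching untreated and 100% meaning death, some 20 to 23 days after a single post-emergence foliar treatment applied in 500 L/ha of water carrying 0.1% (v/v) agricultural spreader.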

[5] = test system: barnyardgrass (Echinochloa crus-galli L.): ECHCG; assay: Test Example 1 pre-emergence herbicidal activity, ECHCG; details: Rate 63 g a.i./ha, visually observed 20th to 23rd day after application
Outline: as §1

[6] = test system: soybean (Glycine max Merr.), GLXMA; assay: Test Example 2 post-emergence (foliage treatment) herbicidal activity, GLXMA; details: 63 g a.i./ha
Outline: as §2

[7] = test system: wheat (Triticum aestivum L.), TRZAX; assay: Test Example 2 post-emergence (foliage treatment) herbicidal activity, TRZAX; details: 63 g a.i./ha
Outline: as §2

[8] = test system: rice (Oryza sativa L.): ORYSA; assay: Test Example 1 pre-emergence herbicidal activity, ORYSA; details: Rate 63 g a.i./ha, visually observed 20th to 23rd day after application
Outline: as §1

[9] = test system: crabgrass (Digitaria sanguinalis L.): DIGSA; assay: Test Example 1 pre-emergence herbicidal activity, DIGSA; details: Rate 63 g a.i./ha, visually observed 20th to 23rd day after application
Outline: as §1

[10] = test system: rice (Oryza sativa L.), ORYSA; assay: Test Example 2 post-emergence (foliage treatment) herbicidal activity, ORYSA; details: 63 g a.i./ha
Outline: as §3

[11] = test system: velvetleaf (Abutilon theophrasti), ABUTH; assay: Test Example 2 post-emergence (foliage treatment) herbicidal activity, ABUTH; details: 63 g a.i./ha
Outline: as §2

[12] = test system: green foxtail (Setaria viridis L.): SETVI; assay: Test Example 1 pre-emergence herbicidal activity, SETVI; details: Rate 63 g a.i./ha, visually observed 20th to 23rd day after application
Outline: as §1

[13] = test system: redroot pigweed (Amaranthus retroflexus L.), AMARE; assay: Test Example 2 post-emergence (foliage treatment) herbicidal activity, AMARE; details: 63 g a.i./ha
Outline: as §3

[14] = test system: green foxtail (Setaria viridis L.), SETVI; assay: Test Example 2 post-emergence (foliage treatment) herbicidal activity, SETVI; details: 63 g a.i./ha
Outline: as §2

[15] = test system: crabgrass (Digitaria sanguinalis L.), DIGSA; assay: Test Example 2 post-emergence (foliage treatment) herbicidal activity, DIGSA; details: 63 g a.i./ha
Outline: as §3

[16] = test system: prickly sida (Sida spinosa L.): SEDSP; assay: Test Example 1 pre-emergence herbicidal activity, SIDSP; details: Rate 63 g a.i./ha, visually observed 20th to 23rd day after application
Outline: as §1

[17] = test system: velvetleaf (Abutilon theophrasti): ABUTH; assay: Test Example 1 pre-emergence herbicidal activity, ABUTH; details: Rate 63 g a.i./ha, visually observed 20th to 23rd day after application
Outline: as §1

[18] = test system: wheat (Triticum aestivum L.): TRZAX; assay: Test Example 1 pre-emergence herbicidal activity, TRZAX; details: Rate 63 g a.i./ha, visually observed 20th to 23rd day after application
Outline: as §1

[19] = test system: prickly sida (Sida spinosa L.), SIDSP; assay: Test Example 2 post-emergence (foliage treatment) herbicidal activity, SIDSP; details: 63 g a.i./ha
Outline: as §2

[20] = test system: soybean (Glycine max Merr.): GLXMA; assay: Test Example 1 pre-emergence herbicidal activity, GLXMA; details: Rate 63 g a.i./ha, visually observed 20th to 23rd day after application
Outline: as §1

Row | SMILES | Pre-emergence Herbicidal Activity ZEAMX (growth controlling degree) [1] | Pre-emergence Herbicidal Activity AMARE (growth controlling degree) [2] | growth controlling degree, ZEAMX [3] | growth controlling degree, ECHCO [4] | Pre-emergence Herbicidal Activity ECHCG (growth controlling degree) [5] | growth controlling degree, GLXMA [6] | growth controlling degree, TRZAX [7] | Pre-emergence Herbicidal Activity ORYSA (growth controlling degree) [8] | Pre-emergence Herbicidal Activity DIGSP (growth controlling degree) [9] | growth controlling degree, ORYSA [10] | growth controlling degree, ABUTH [11] | Pre-emergence Herbicidal Activity SETVI (growth controlling degree) [12] | growth controlling degree, AMARE [13] | growth controlling degree, SETVI [14] | growth controlling degree, DIGSP [15] | Pre-emergence Herbicidal Activity SIDSP (growth controlling degree) [16] | Pre-emergence Herbicidal Activity ABUTH (growth controlling degree) [17] | Pre-emergence Herbicidal Activity TRZAX (growth controlling degree) [18] | growth controlling degree, SIDSP [19] | Pre-emergence Herbicidal Activity GLXMA (growth controlling degree) [20]
1 | COc1c(Cl)cc(F)c(-c2nn(C)c(OC(F)F)c2Cl)c1NC(=O)C=Cc1cccc(C)c1 [Compound 1-254] | 0% | 100% | 30% | 80% | 60% | 70% | 30% | 20% | 60% | 90% | 100% | 50% | 100% | 95% | 60% | 60% | 50% | 0% | 100% | 0%
2 | COc1c(Cl)cc(F)c(-c2nn(C)c(OC(F)F)c2Cl)c1NC(=O)C=Cc1ccc(C)cc1 [Compound 1-255] | 0% | 70% | 20% | 50% | 0% | 50% | 10% | 0% | 10% | 40% | 100% | 10% | 100% | 50% | 30% | 0% | 0% | 0% | 100% | 0%
